# Measured values as given in US20220401951A1, “RAPID CELL CULTURE TEST DEVICE INCLUDING ISLAND STRUCTURES” (QuantaMatrix Inc., priority 2020, published 2022).
# Test system: P. aeruginosa ATCC 27853
# Experiment: antibiotic susceptibility test in the cell culture test device (solid thin film, microscopic observation)
# Assay type: cell-based
# Settings: device of Example 1
# Protocol: Colistin as an antibiotic was loaded into the island structure through the third inlet portion of each of the well units. The antibiotic was loaded in an amount of 10 μl, dried, and fixed in the shape illustrated in (b) of FIG. 5.
# Thereafter, 10 μl of a mixture of agarose and a bacterial solution (P. aeruginosa ATCC 27853) as a first fluid was dispensed into the first accommodation space through the first inlet portion. After the introduction of the first fluid into the first accommodation space was completed, 100 μl of a culture medium as a second fluid was introduced into the second accommodation space through the second inlet portion.
# In each of Examples 1-8 and Comparative Examples 1-4, 10 cell culture test devices having the same structure were manufactured. A determination was made as to whether the solid thin films of the first fluid were defective. The susceptibilities to the antibiotic at four selected points of each first accommodation space were evaluated. The four points (a, b, c, and d) were at right angles to the first inlet portion. […] The solid thin film in the first accommodation space was visually observed to determine whether the solid thin film was defective.
# Particularly, the effect of the antibiotic was pronounced at ≥1 mg/ml.
substance,measurement,setting,value
Colistin,response of bacteria in solid thin film to colistin,"after 6 h, 0 to 2 mg/ml colistin (FIG. 10)",Clear responses were observed
same,colistin concentration at which the effect of the antibiotic was pronounced,"observation after 6 h, concentrations tested 0, 0.12, 0.25, 0.5, 1, 2 mg/ml (FIG. 10)",≥ 1 mg/mL
